{"source": "patent US20020028255A1", "about": "“Pesticide treatment” (priority 1998, published 2002)", "key": {"[1]": {"assay": "Kinetics of decomposition of the dione in water in the presence of chlorine (ppm)", "assay_type": "physicochemical", "from_the_text": "(A) The kinetics of the decomposition of 2-cyano-3-cyclopropyl-1-(2-methylsulphonyl-4-trifluoromethylphenyl)propan-1,3-dione in water was studied. The following Table summarizes the results obtained at pH7 or pH9 in the presence of 0.1 or 0.5 ppm of chlorine. The percentages given are of degradation of the dione to the corresponding benzoic acid, 2-methylsulphonyl-4-trifluoromethyl-benzoic acid."}, "[2]": {"assay": "Decomposition of DKN in bleach, followed by TLC", "assay_type": "physicochemical", "conditions": "1 g in 25 ml bleach (14 to 15% chlorine), ambient temperature, after 30 minutes", "method": "2-Cyano-3-cyclopropyl-1-2-methylsulphonyl-4-trifluoromethylphenyl)propan-1,3-dione(DKN:1 g) was added to 25 ml of bleach (containing 14 to 15% chlorine). The mixture was stirred at ambient temperature. After 3 minutes a clear solution formed. […] The main product was the corresponding benzoic acid."}, "[3]": {"assay": "Cleaning of a contaminated 1000 l tank with sodium hypochlorite solution", "assay_type": "physicochemical", "conditions": "tank wet with 0.02% (w/w) suspension; 10 l of 0.01% (w/w) sodium hypochlorite, one hour", "from_the_text": "A 1000 l container or tank was used to prepare a suspension of dione pesticide (2-cyano-3-cyclopropyl- 1-(2-methylsulphonyl-4-trifluoromethylphenyl)propan-1,3-dione). The suspension was used to destroy the weeds in a crop growing area. The container was then still wet with aqueous suspension of 0.02% (w/w) of the pesticide.\n10 l of 0.01% (w/w) solution of sodium hypochlorite is poured into the tank and stirred (so as to contact the whole inner surface of the container) and left for one hour.\nExample 3 is repeated except that the pesticide is an isoxazole (5-cyclopropyl-4-(2-methylsulphonyl-4-trifluoromethylbenzoyl)isoxazole;IFT) and the pH of the hypochlorite solution is 8.5 (adjusted using NaOH)."}, "[4]": {"assay": "Vials of dione solution in water (500 ppt) treated with water containing chlorine (ppb)", "assay_type": "physicochemical", "conditions": "dione 500 ppt, ambient temperature", "method": "(B) Vials containing 1 ml of solutions in water of the dione used in (A) (at a concentration of 500 ppt) were treated at ambient temperature with 1 ml of water containing 0.1 or 0.5 ppb concentrations of chlorine."}, "[5]": {"test_system": "Maize (Pioneer 3394) seeds", "assay": "Damage (bleaching of the shoot) to maize seeds bathed in herbicide solutions, control vs hypochlorite-sterilized seed", "assay_type": "in vivo", "conditions": "for damage to maize: low concentration", "method": "Maize (Pioneer 3394) seeds were placed in a solution of 1% (w/w) sodium hypochlorite for 30 seconds, then rinsed thoroughly for 5 minutes with sodium bicarbonate solution (5% w/w).\nReplicates of 20 seeds from each treatment were placed in petri dishes and bathed in 25 ml of the following solutions for 24 hours (covered and incubated at 25° C. in a growth cabinet).\nAfter 24 hours the seeds were removed from the bathing solutions, rinsed thoroughly in water and planted (in green light- as some of the seeds had started to produce a coleoptile which is sensitive to daylight). Seeds were planted in duplicate in 10 cm×10 cm pots containing non-sterile loam and were overhead watered 3 times daily.\nAssessments were made 7 and 14 DAT (days after treatment)."}, "[6]": {"conditions": "control seed, 1.0 μg ml^−1, bathed 24 hours"}, "[7]": {"conditions": "control seed, 10.0 μg ml^−1, bathed 24 hours"}, "[8]": {"conditions": "sterilized seed (1% sodium hypochlorite), 1.0 μg ml^−1, bathed 24 hours"}, "[9]": {"conditions": "sterilized seed (1% sodium hypochlorite), 10.0 μg ml^−1, bathed 24 hours"}}}
{"smiles": "CS(=O)(=O)c1cc(C(F)(F)F)ccc1C(=O)C(C#N)C(=O)C1CC1", "note": "(stereo not drawn) [DKN]", "values": [{"measurement": "degradation of the dione to the corresponding benzoic acid", "setting": "[1]; pH 7, Cl2 0.1 ppm, 15 min", "value": 100, "unit": "%"}, {"measurement": "degradation of the dione to the corresponding benzoic acid", "setting": "[1]; pH 7, Cl2 0.5 ppm, 15 min", "value": 100, "unit": "%"}, {"measurement": "degradation of the dione to the corresponding benzoic acid", "setting": "[1]; pH 9, Cl2 0.1 ppm, 15 min", "value": 50, "unit": "%"}, {"measurement": "degradation of the dione to the corresponding benzoic acid", "setting": "[1]; pH 9, Cl2 0.1 ppm, 60 min", "value": 100, "unit": "%"}, {"measurement": "degradation of the dione to the corresponding benzoic acid", "setting": "[1]; pH 9, Cl2 0.5 ppm, 15 min", "value": 100, "unit": "%"}, {"measurement": "DKN remaining by thin layer chromatography", "setting": "[2]", "value": "no DKN was detected"}, {"measurement": "disappearance of pesticide from the tank", "setting": "[3]", "value": "All of the dione pesticide disappeared"}, {"measurement": "degradation of the dione", "setting": "[4]; pH 5, Cl2 0.1 ppb, 15 min", "value": 100, "unit": "%"}, {"measurement": "degradation of the dione", "setting": "[4]; pH 5, Cl2 0.5 ppb, 15 min", "value": 100, "unit": "%"}, {"measurement": "degradation of the dione", "setting": "[4]; pH 7, Cl2 0.1 ppb, 15 min", "value": 100, "unit": "%"}, {"measurement": "degradation of the dione", "setting": "[4]; pH 7, Cl2 0.5 ppb, 15 min", "value": 100, "unit": "%"}, {"measurement": "degradation of the dione", "setting": "[4]; pH 9, Cl2 0.1 ppb, 60 min", "value": ">90", "unit": "%"}, {"measurement": "degradation of the dione", "setting": "[4]; pH 9, Cl2 0.5 ppb, 15 min", "value": 100, "unit": "%"}, {"measurement": "% Damage (bleaching of the shoot)", "setting": "[5]; [6]", "value": 0, "unit": "%"}, {"measurement": "% Damage (bleaching of the shoot)", "setting": "[5]; [7]", "value": 0, "unit": "%"}, {"measurement": "% Damage (bleaching of the shoot)", "setting": "[5]; control seed, 100.0 μg ml^−1, bathed 24 hours", "value": 87, "unit": "%"}, {"measurement": "damage to maize", "setting": "[5]; 1 μg ml^−1", "value": "No damage"}, {"measurement": "% Damage (bleaching of the shoot)", "setting": "[5]; [8]", "value": 0, "unit": "%"}, {"measurement": "% Damage (bleaching of the shoot)", "setting": "[5]; [9]", "value": 0, "unit": "%"}, {"measurement": "% Damage (bleaching of the shoot)", "setting": "[5]; sterilized seed (1% sodium hypochlorite), 100.0 μg ml^−1, bathed 24 hours", "value": 11, "unit": "%"}]}
{"smiles": "CS(=O)(=O)c1cc(C(F)(F)F)ccc1C(=O)c1cnoc1C1CC1", "note": "[IFT, 5-cyclopropyl-4-(2-methylsulphonyl-4-trifluoromethylbenzoyl)isoxazole]", "values": [{"measurement": "% Damage (bleaching of the shoot)", "setting": "[5]; control seed, 0.1 μg ml^−1, bathed 24 hours", "value": 0, "unit": "%"}, {"measurement": "% Damage (bleaching of the shoot)", "setting": "[5]; [6]", "value": 20, "unit": "%"}, {"measurement": "% Damage (bleaching of the shoot)", "setting": "[5]; [7]", "value": 98, "unit": "%"}, {"measurement": "damage to maize", "setting": "[5]; 0.1 μg ml^−1", "value": "No damage"}, {"measurement": "% Damage (bleaching of the shoot)", "setting": "[5]; sterilized seed (1% sodium hypochlorite), 0.1 μg ml^−1, bathed 24 hours", "value": 0, "unit": "%"}, {"measurement": "% Damage (bleaching of the shoot)", "setting": "[5]; [8]", "value": 13, "unit": "%"}, {"measurement": "% Damage (bleaching of the shoot)", "setting": "[5]; [9]", "value": 100, "unit": "%"}]}
